Data as given in ChEMBL document CHEMBL1201862, “PubChem BioAssay data set” (2004).
Active and inactive are the calls of the source.

Legend:
[1] = Luminescence Cell-Based Dose Response HTS to Identify Activators of Luciferase Translation or Activity in H4 […] Cells. [Related pubchem assays: 1829 (Project Summary), 1814 (Primary HTS)]; type: functional
H4 = assay: Luminescence Cell-Based Dose Response HTS to Identify Activators of 5'UTR Stem-Loop Driven Prion Protein mRNA Translation in H4 Neuroglioblastoma Cells. [Related pubchem assays: 1829 (Project Summary), 1814 (Primary HTS)]; type: functional; conditions: Homo sapiens
Major prion protein = Major prion protein (Homo sapiens, UniProt P04156); type: functional, cell-based
cells [2] = assay: cells
cells [3] = assay: cells; remark: listed apart in the source
[4] = molecular target: T1, Oxysterols receptor LXR-beta (Homo sapiens, UniProt P55055); type: functional, cell-based
T1 sequence (P55055 whole entry): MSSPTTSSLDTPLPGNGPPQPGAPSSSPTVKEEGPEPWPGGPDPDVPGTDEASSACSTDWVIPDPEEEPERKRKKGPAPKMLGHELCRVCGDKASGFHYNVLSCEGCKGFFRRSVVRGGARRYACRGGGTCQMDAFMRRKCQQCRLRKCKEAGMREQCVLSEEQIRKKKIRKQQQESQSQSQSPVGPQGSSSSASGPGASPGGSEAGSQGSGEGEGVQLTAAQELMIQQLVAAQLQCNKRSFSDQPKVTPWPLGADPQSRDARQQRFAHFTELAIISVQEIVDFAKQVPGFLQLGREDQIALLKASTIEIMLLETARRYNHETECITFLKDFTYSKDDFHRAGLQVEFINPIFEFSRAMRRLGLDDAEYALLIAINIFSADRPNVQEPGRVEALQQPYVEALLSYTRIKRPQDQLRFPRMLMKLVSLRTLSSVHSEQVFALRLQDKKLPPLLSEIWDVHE

[5] = A Cell Based Secondary Assay To Explore Cytotoxicity of Compounds that Sensitize Mycobacterium Tuberculosis to Beta-Lactam Antibiotics.; type: functional
[6] = molecular target: T2, Corticotropin-releasing factor receptor 2/Corticotropin-releasing factor-binding protein (Homo sapiens, UniProt P24387+Q13324); assay: activators of CRF receptor 2 with binding protein – uHTS hits, confirmation (AID 602473); type: functional; conditions: read-out: EC50_Mean
T2 sequence (Q13324 whole entry): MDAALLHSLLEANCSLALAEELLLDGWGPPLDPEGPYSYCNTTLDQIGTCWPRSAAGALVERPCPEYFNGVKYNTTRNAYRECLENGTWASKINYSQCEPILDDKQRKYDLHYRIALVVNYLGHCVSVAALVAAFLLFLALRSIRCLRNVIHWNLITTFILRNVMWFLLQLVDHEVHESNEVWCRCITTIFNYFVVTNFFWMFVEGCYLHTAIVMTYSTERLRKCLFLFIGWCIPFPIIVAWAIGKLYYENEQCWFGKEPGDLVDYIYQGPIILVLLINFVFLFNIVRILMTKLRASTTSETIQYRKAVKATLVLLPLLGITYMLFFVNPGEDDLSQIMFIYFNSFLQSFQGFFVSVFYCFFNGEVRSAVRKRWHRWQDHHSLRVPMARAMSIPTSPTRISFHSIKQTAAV
T2 sequence (P24387 whole entry): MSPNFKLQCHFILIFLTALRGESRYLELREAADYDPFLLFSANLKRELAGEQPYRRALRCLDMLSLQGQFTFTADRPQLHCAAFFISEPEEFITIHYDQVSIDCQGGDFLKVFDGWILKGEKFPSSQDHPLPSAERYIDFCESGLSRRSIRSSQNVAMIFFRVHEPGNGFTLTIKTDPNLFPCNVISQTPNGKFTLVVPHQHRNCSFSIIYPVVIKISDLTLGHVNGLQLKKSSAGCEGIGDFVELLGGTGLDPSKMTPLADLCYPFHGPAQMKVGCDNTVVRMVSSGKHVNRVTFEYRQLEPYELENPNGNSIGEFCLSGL

[7] = molecular target: T2, Corticotropin-releasing factor receptor 2/Corticotropin-releasing factor-binding protein; assay: Dose Response confirmation of uHTS hits for small molecule antagonists of the CRF-binding protein and CRF-R2 receptor complex.; type: functional; conditions: read-out: IC50_Mean
[8] = molecular target: T1, Oxysterols receptor LXR-beta; type: functional, cell-based; remark: listed apart in the source
cells [9] = type: functional, cell-based
cells [10] = type: functional, cell-based; remark: listed apart in the source
[11] = molecular target: T3, Methionyl-tRNA synthetase, putative (Trypanosoma brucei brucei, UniProt Q38C91); type: functional, Trypanosoma brucei brucei strain 927/4 GUTat10.1
T3 sequence (Q38C91 whole entry): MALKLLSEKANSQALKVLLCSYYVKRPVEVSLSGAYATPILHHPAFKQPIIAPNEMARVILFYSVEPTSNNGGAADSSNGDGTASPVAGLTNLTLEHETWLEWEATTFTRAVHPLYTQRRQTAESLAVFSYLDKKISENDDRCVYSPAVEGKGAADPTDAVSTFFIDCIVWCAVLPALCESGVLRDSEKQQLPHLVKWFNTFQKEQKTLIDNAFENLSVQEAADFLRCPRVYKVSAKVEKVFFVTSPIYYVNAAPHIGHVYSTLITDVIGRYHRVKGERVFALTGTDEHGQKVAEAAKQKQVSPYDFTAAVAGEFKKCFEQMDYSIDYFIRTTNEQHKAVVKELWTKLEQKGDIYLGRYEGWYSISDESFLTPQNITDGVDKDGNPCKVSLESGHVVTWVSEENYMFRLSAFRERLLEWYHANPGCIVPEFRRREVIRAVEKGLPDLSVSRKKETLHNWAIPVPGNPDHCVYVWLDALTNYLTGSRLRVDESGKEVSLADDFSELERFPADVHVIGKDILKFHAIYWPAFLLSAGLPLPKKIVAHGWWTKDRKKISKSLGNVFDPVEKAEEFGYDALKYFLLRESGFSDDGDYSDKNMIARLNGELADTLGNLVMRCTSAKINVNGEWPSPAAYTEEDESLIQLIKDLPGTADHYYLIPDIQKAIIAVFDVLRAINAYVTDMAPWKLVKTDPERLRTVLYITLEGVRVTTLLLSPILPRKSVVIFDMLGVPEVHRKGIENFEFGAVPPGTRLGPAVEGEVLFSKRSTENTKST

[12] = Counterscreen for inhibitors of Trypanosoma brucei methionyl tRNA synthetase (MetRS): Luminescence-based cell-based high throughput dose response assay to identify compounds that are cytotoxic to Jurkat human T lymphocyte cells.; type: functional
[13] = molecular target: T3, Methionyl-tRNA synthetase, putative; type: functional, Trypanosoma brucei brucei strain 927/4 GUTat10.1; remark: listed apart in the source
Beta-lactamase [14] = molecular target: T4, Beta-lactamase (Pseudomonas aeruginosa, UniProt Q79MP6); assay: inhibition of IMP-1 beta-lactamase activity – biochemical, epi-absorbance, selectivity assay for VIM-2 inhibitor project, dose response (AID 1920)
Beta-lactamase [15] = molecular target: T4, Beta-lactamase; assay: […] counterscreen for selective VIM-2 inhibitors: dose response biochemical high throughput screening assay to identify inhibitors of IMP-1 metallo-beta-lactamase.
Beta-lactamase [16] = molecular target: Beta-lactamase (Salmonella choleraesuis (strain SC-B67), UniProt Q5J463); assay: Epi-absorbance-based counterscreen for selective VIM-2 inhibitors: dose response biochemical high throughput screening assay to identify inhibitors of TEM-1 serine-beta-lactamase.
[17] = molecular target: T5, Trace amine-associated receptor 1 (Homo sapiens, UniProt Q96RJ0); assay: Fluorescence-based cell-based high throughput dose response assay to identify agonists of the human trace amine associated receptor 1 (TAAR1).; type: functional
T5 sequence (Q96RJ0 whole entry): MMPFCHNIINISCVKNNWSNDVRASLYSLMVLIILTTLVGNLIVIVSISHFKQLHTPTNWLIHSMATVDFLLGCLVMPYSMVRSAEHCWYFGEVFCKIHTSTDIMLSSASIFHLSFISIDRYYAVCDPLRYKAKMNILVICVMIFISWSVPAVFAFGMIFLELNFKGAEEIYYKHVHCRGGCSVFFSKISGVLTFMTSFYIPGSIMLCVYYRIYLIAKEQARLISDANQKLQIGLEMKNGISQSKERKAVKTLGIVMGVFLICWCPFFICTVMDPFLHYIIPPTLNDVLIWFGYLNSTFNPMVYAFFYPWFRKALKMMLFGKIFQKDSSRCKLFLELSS

cells [18] = type: functional, cell-based; remark: listed apart in the source
[19] = molecular target: T5, Trace amine-associated receptor 1; assay: Counterscreen for agonists of the human trace amine associated receptor 1 (hTAAR1): Fluorescence-based cell-based high throughput dose response assay to identify hTAAR1 agonist that also desensitize TAAR1 receptor response.; type: functional
cells [20] = type: functional, cell-based; remark: listed apart in the source
[21] = molecular target: Arf-GAP with SH3 domain, ANK repeat and PH domain-containing protein 1 (Homo sapiens, UniProt Q9ULH1); type: functional;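 also: biochemical fluorescence polarization dose–response screen measuring inhibition of ASAP1; ASAP1 GAP domain stimulating GTP hydrolysis by truncated human ARF1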
[22] = inhibitors of EBV LMP1 NF-kappaB signaling – cell-based, luciferase reporter, luminescence, dry powder, set 2, dose response (AID 624376); type: functional
Paired box protein Pax-8 = Paired box protein Pax-8 (Homo sapiens, UniProt Q06710); assay: PAX8 transcriptional activity inhibition in RMG-I – RMG-I cells, luciferase, cherry-pick, dose response (AID 687027); type: functional, cell-based;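 also: luciferase reporter driven by Pax8 target thyroperoxidase promoter measured by SteadyGlo luminescence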
[23] = A2780 cell killing – plate reader, dry powder samples, cytotoxicity control, dose response (AID 743046); type: functional, cell-based
HeLa = assay: viability loss in HeLa cells – cell-based, ATP luminescence, cherry-pick samples, cytotoxicity control, dose response (AID 687004); type: functional; conditions: Homo sapiens
[24] = HEK293 Cytotoxicity Assay Measured in Cell-Based System Using Plate Reader - 7071-01_Inhibitor_Dose_CherryPick_Activity_Set2.; type: functional
HEK293 = assay: viability loss in HEK293T cells – cell-based, ATP luminescence, cherry-pick samples, cytotoxicity control, dose response (AID 687005); type: functional; conditions: Homo sapiens;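 also: cells exposed to compound for 48 hours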
[25] = inhibitors of TRPM1-promoter reporter in SK-MEL-5 – cell-based, luciferase, dry powder, set 8, MITF inhibitor project, dose response (AID 624430); type: functional
[26] = MITF: Counter assay: A375 proliferation Measured in Cell-Based System Using Plate Reader - 2084-03_Inhibitor_Dose_DryPowder_Activity_Set8.; type: functional; conditions: A-375
[27] = MITF Orthogonal Assay: SK-MEL-5 CTG Assay Measured in Cell-Based System Using Plate Reader - 2084-02_Inhibitor_Dose_DryPowder_Activity_Set7.; type: functional
[28] = viability loss in HEK293 kidney cells – cell-based, cherry-picks, set 5, cytotoxicity control, dose response (AID 1053117); type: functional

CC1CCCN(C(=O)CSc2cnc3ccccc3n2)C1 (stereo not drawn)
EC50 [1]: 5.25 µM (active)
EC50 (H4): 11 µM (active)
IC50 (Major prion protein): 5.87 µM (active)
IC50 (cells [2]): > 138 µM (inactive)

Nc1c2c(nc3sc4c(c13)CCCC4)-c1ccccc1CC2
EC50 (cells [3]): > 67.5 µM (inactive)
EC50 [4]: > 67.5 µM (inactive)
CC50 [5]: > 40 µM (active)

COc1ccc2c(C)cc(SCc3c(C)noc3C)nc2c1
EC50 [6]: > 53 µM (inactive)
IC50 [7]: > 47.1 µM (inactive)
IC50 (Major prion protein): 4.31 µM (active)
IC50 (cells [2]): > 138 µM (inactive)

O=C(NCCCn1ccnc1)c1cc(-c2ccccc2)on1
EC50 [8]: > 67.5 µM (inactive)
EC50 (cells [9]): > 350 µM (not active)
EC50 (cells [10]): 8.67 µM (active)

Cc1ccc(NC(=O)C(C)c2cccc(C(=O)c3ccccc3)c2)cc1 (stereo not drawn)
IC50 [11]: 3.15 µM (active)
IC50 [12]: 83.3 µM (inactive)
IC50 [13]: 7.61 µM (active)

O=C(CSc1nnc(NC(=O)c2c(F)cccc2F)s1)NCc1ccccc1
IC50 (Beta-lactamase [14]): > 59.6 µM (inactive)
IC50 (Beta-lactamase [15]): > 59.6 µM (inactive)
IC50 (Beta-lactamase [16]): > 59.6 µM (inactive)

O=C(O)C1C2C=CC(C2)C1C(=O)NCCc1ccccc1 (stereo not drawn)
EC50 [17]: 0.14 µM (active)
IC50 (cells [18]): > 29.9 µM (inactive)
IC50 [19]: 5.26 µM (active)
EC50 (cells [20]): > 29.9 µM (inactive)

COc1ccc(/C=C2\C(=O)NC(=O)c3ccccc32)cc1OC
IC50 [21]: 165 µM (inactive)

OC(c1cc(F)cc(Cl)c1)c1nc(-c2cccc(C(F)(F)F)c2)c[nH]1 (stereo not drawn)
IC50 [11]: 17.5 µM (inactive)
IC50 [12]: 42.2 µM (inactive)
IC50 [13]: 27.7 µM (inactive)

Cc1cc(O)ccc1Nc1cc(-c2cccc(N(C)C)c2)ncn1
EC50 [8]: > 67.5 µM (inactive)

O=C(N[C@@H](Cc1cccnc1)C(=O)N1CCC[C@H]1C(=O)NCCc1ccccc1Cl)c1ccccc1
EC50 [17]: 4.3 µM (active)
IC50 (cells [18]): > 29.9 µM (inactive)
IC50 [19]: 5.16 µM (active)
EC50 (cells [20]): > 29.9 µM (inactive)

Cc1noc(C)c1S(=O)(=O)Nc1ccc2c(c1)C(=O)N([C@@H](C)CO)C[C@@H](C)[C@H](CN(C)Cc1ccc(C(F)(F)F)cc1)OCCCC[C@@H](C)O2
AbsAC35 [22]: 151.1 µM

Cc1noc(C)c1S(=O)(=O)N(C)C[C@H]1OCCCC[C@@H](C)Oc2ccc(NS(=O)(=O)c3ccc(Cl)cc3)cc2C(=O)N([C@@H](C)CO)C[C@H]1C
AC50 (Paired box protein Pax-8): 10.9 µM (active)
AC50 [23]: < 0.26 µM (active)

C[C@@H]1CN([C@@H](C)CO)C(=O)c2cc(NS(=O)(=O)c3ccc(F)cc3)ccc2O[C@@H](C)CCCCO[C@H]1CN(C)S(=O)(=O)c1ccc(F)cc1
AC50 (HeLa): > 52 µM (inactive)
AC50 [24]: 22.5 µM (active)
AC50 (HEK293): 22.5 µM (active)

C[C@H]1CN([C@@H](C)CO)C(=O)c2c(c3ccccc3n2C)-c2ccccc2CO[C@@H]1CN(C)C(=O)Nc1ccc(F)cc1
AbsAC35 [22]: 78.41 µM

O=C1C=C(Nc2cc(Cl)cc(Cl)c2)C(=O)c2ccccc21
AC50 [25]: 23.9 µM (active)
AC50 [26]: 24 µM (active)
AC50 [27]: 1.12 µM (active)

C[C@H]1CN([C@@H](C)CO)C(=O)c2cc(-c3ccccc3)cnc2O[C@H]1CN(C)C(=O)c1cccc(F)c1
AC50 [28]: > 52 µM (inactive)

Cc1ccc(/C=N/NC(=O)CCCOc2ccc(Cl)cc2Cl)cc1[N+](=O)[O-]
IC50 [21]: 26.1 µM (inactive)

O=C1C(Nc2ccc(I)cc2)=C(N2CCCCC2)C(=O)c2ccccc21
AC50 [25]: 9.62 µM (active)
AC50 [26]: > 70 µM (inactive)
AC50 [27]: 15.9 µM (active)
